From ChEMBL document CHEMBL1130812, “The design and synthesis of inhibitors of the cysteinyl protease, Der p I” (Bioorg Med Chem Lett, 1998) come the findings set out here.

Where a SMILES comes first, the peptide text is derived from it. The star is where a group is joined. Boc = CC(C)(C)OC(=O)*

Test [1] has as its system Dermatophagoides pteronyssinus. In words: Inhibitory activity against Cysteinyl protease was evaluated by method A in experiment 1.
Test [2] has as its system Dermatophagoides pteronyssinus. Nature of the test: Inhibitory activity against Cysteinyl protease was evaluated by method A in experiment 2.
The test system of test [3] is Dermatophagoides pteronyssinus. In words: Inhibitory activity against Cysteinyl protease was evaluated by method A.
Test [4] deals with Dermatophagoides pteronyssinus. In words: Inhibitory activity against Cysteinyl protease was evaluated by method B.
Test [5] is described as follows: Inhibitory activity against Cysteinyl protease was evaluated. Also noted: species or system Dermatophagoides pteronyssinus.
Test [6] can be described thus: Reversible Inhibitory activity on Cysteinyl protease was evaluated. Also noted: species or system Dermatophagoides pteronyssinus.

Consider `CCCC[C@H](NC(=O)[C@H](C)NC(=O)[C@@H](NC(=O)c1ccccc1)C(C)C)C(=O)COC(=O)c1ccccc1`, for which the figures for the k obs / 1 in test [1] and in test [2] were 370000 M⁻¹ s⁻¹ and 50000 M⁻¹ s⁻¹, respectively.
The matching figures for `CCOC(=O)/C=C/[C@H](CC(C)C)NC(=O)[C@H](C)NC(=O)[C@@H](NC(=O)OC(C)(C)C)C(C)C`: 1700 M⁻¹ s⁻¹ and 7900 M⁻¹ s⁻¹.
As to `CC(C)C[C@@H](/C=C/S(=O)(=O)Cc1ccccc1)NC(=O)[C@H](C)NC(=O)[C@@H](NC(=O)OC(C)(C)C)C(C)C`, the k obs / 1 came to 2300 M⁻¹ s⁻¹ in test [1] and 350000 M⁻¹ s⁻¹ in test [2].
Taken in the same sequence, the figures for `CC(C)C[C@@H](/C=C/S(C)(=O)=O)NC(=O)[C@H](C)NC(=O)[C@@H](NC(=O)OC(C)(C)C)C(C)C` were 1100 M⁻¹ s⁻¹ and 11000 M⁻¹ s⁻¹.
`CCOC(=O)/C=C/[C@H](CC(C)C)NC(=O)[C@H](C)NC(=O)[C@@H](NC(C)=O)C(C)C`: the k obs / 1 in test [3] was under 100 M⁻¹ s⁻¹.
As for `CCCC[C@H](NC(=O)[C@H](C)NC(=O)[C@@H](NC(=O)c1ccccc1)C(C)C)C(=O)COC(=O)c1c(C(F)(F)F)cccc1C(F)(F)F`, the k obs / 1 in test [4] was 1.3e+07 M⁻¹ s⁻¹; in test [1], 1e+06 M⁻¹ s⁻¹; in test [2], 2.2e+06 M⁻¹ s⁻¹.
Regarding `CCOC(=O)/C=C/[C@H](CC(C)C)NC(=O)[C@H](C)NC(=O)[C@@H](N)C(C)C`, the k obs / 1 in test [3] was under 100 M⁻¹ s⁻¹.
Usually Ki stands for a measure of affinity in units of concentration, obtained from inhibition or displacement. `CC(C)C[C@@H](C=O)NC(=O)[C@H](C)NC(=O)[C@@H](NC(=O)OC(C)(C)C)C(C)C` (Boc-Val-Ala-Leu-aldehyde) yielded an inhibitory constant (Ki) in test [5] of 14 nM.
For `CCCC[C@H](NC(=O)[C@H](C)NC(=O)[C@@H](NC(=O)c1ccccc1)C(C)C)C(=O)COC(=O)c1c(Cl)cccc1Cl`, in test [4], the k obs / 1 worked out at 6.8e+07 M⁻¹ s⁻¹.
In turn, `CCCC[C@H](NC(=O)[C@H](C)NC(=O)[C@@H](NC(=O)c1ccccc1)C(C)C)C(=O)CBr` came in with a Ki in test [6] of 1.6 nM.
The molecule `CCCC[C@H](NC(=O)[C@H](C)NC(=O)[C@@H](NC(=O)c1ccccc1)C(C)C)C(=O)COC(=O)c1c(C)cccc1C` showed a k obs / 1 in test [4] of 1.6e+07 M⁻¹ s⁻¹.
Consider `CCOC(=O)/C=C/[C@H](CC(C)C)NC(=O)[C@H](C)NC(=O)[C@@H](NC(=O)c1ccccc1)C(C)C`, for which the results for the k obs / 1 in test [1] and in test [2] were 4100 M⁻¹ s⁻¹ and 16000 M⁻¹ s⁻¹, respectively.
The matching figures for `CC(C)C[C@@H](/C=C/S(=O)(=O)c1ccccc1)NC(=O)[C@H](C)NC(=O)[C@@H](NC(=O)OC(C)(C)C)C(C)C`: 6400 M⁻¹ s⁻¹ and 25000 M⁻¹ s⁻¹.
